# Values of other authors, collected in patent publication US8414913B2, “Edible compositions for lowering cholesterol” (Raisio Benecol Oy, priority 2001, dated 2013).
# System: total and low density lipoprotein (LDL) cholesterol level
# Details: diets with high β-glucan content; Ripsin et al. 1992, Braaten et al. 1994
substance,measurement,value
β-glucan,lowering of total and LDL cholesterol level,8-12%
